Common to all, as to type: in vivo
In one assay the test system is Plutella xylostella. In words: Example B5: activity against Plutella xylostella (diamond back moth), artificial diet, eggs. Particulars: 192 h, 8 days after infestation, read-out: effect in at least one of the two categories (mortality or growth inhibition). In short, it runs like this:
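Artificial diet in 24-well plates was treated with aqueous dilutions of DMSO stocks, dried, then infested with Plutella eggs. Mortality and growth inhibition were scored against untreated samples 8 days after infestation; application rate 200 ppm.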

A further assay has as its system Pseudoplusia includens. The assay is described as follows: Example B9: Pseudoplusia includens (soybean looper), larvicide, feeding/contact, soybean plants. Particulars: Chrysodeixis includens, 120 h; 50 ppm; L2 larvae; 5 days after infestation; read-out: effect in at least one of the two categories (mortality or growth inhibition). On the procedure:
Soybean plants were treated in a spray chamber, cut off and placed into petri dishes containing wet filter paper. 1d after application leaves were infested with 5 L2 larvae and covered with a fabric filter and plastic lids. 5 days after infestation the samples were assessed for mortality and growth inhibition. The following compounds gave an effect of at least 80% in at least one of the two categories (mortality or growth inhibition) at an application rate of 50 ppm: […]

The next assay concerns Spodoptera littoralis. In words: Example B6: activity against Spodoptera littoralis (Egyptian cotton leaf worm), cotton leaf discs. The conditions noted are these: foliar, 72 h, 200 ppm, L1 larvae, 3 days after infestation, read-out: control (at least one of mortality, anti-feedant effect, growth inhibition). In short, it runs like this: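 Five L1 larvae per sprayed, dried cotton leaf disc on agar. Activity is counted when mortality, anti-feedant effect or growth inhibition exceeds the untreated sample at day 3.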

A further assay deals with Diabrotica balteata. In words: Example B2: activity against Diabrotica balteata (corn root worm), maize sprouts. The conditions noted are these: 96 h, L2 larvae, 4 days after infestation, read-out: effect in at least one of the two categories (mortality or growth inhibition). On the procedure: Maize sprouts placed onto an agar layer in 24-well microtiter plates were treated with aqueous test solutions prepared from 10′000 ppm DMSO stock solutions by spraying. After drying, the plates were infested with L2 larvae (6 to 10 per well). The samples were assessed for mortality and growth inhibition in comparison to untreated samples 4 days after infestation. The following compounds gave an effect of at least 80% in at least one of the two categories (mortality or growth inhibition) at an application rate of 200 ppm: P1, P2, P3, P4, P5, P7, P8, P9, P10, P11, P12, P13, P14, P15, P16, P17, P18, P19, P20, P21, P22, P23, P24, P25, P26, P27, P28, P29, P30, P31, P33, P34, P35, P36, P37, P38, P39, P40, P41, P42, P43, P45, P46, P47, P48, P49, P50, P51, P52, P53, P55, P57, P58, P59, P60, P61, P62, P63, P64, P65, P66, P67, P69, P71, P75, P81, P82, P83.

The test system of another assay is Chilo suppressalis. In words: Example B1: activity against Chilo suppressalis (striped rice stemborer), artificial diet. Particulars: for percent control (mortality, anti-feedant effect or growth inhibition) at 200 ppm: 144 h, L2 larvae, 6 days after infestation, read-out: control (at least one of mortality, anti-feedant effect, growth inhibition). In short, it runs like this: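 Artificial diet in wells was treated with aqueous test solutions diluted from 10'000 ppm DMSO stocks, dried, then infested with 6-8 L2 larvae per well. Mortality, anti-feeding effect and growth inhibition were scored against untreated samples 6 days after infestation; control means any category exceeds the untreated sample.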

The test system of a further assay is Myzus persicae. In words: Example B4: activity against Myzus persicae (green peach aphid), intrinsic activity. Particulars: 120 h, test rate 12 ppm, 5 days after infestation. As for the experimental part:
Test compounds prepared from 10′000 ppm DMSO stock solutions were applied by pipette into 24-well microtiter plates and mixed with sucrose solution. The plates were closed with a stretched Parafilm. A plastic stencil with 24 holes was placed onto the plate and infested pea seedlings were placed directly on the Parafilm. The infested plate was closed with a gel blotting paper and another plastic stencil and then turned upside down. The samples were assessed for mortality 5 days after infestation.

Broadly, the mortality is the percentage killed. High values mean a strong lethal effect, low ones a weak lethal effect.

On to `CNC(=O)c1cc(-n2ncnc2[C@H](C)N(C)c2ncnc3c(I)cc(Cl)cc23)ncn1` [Compound P33, 6-[5-[(1S)-1-[(6-chloro-8-iodo-quinazolin-4-yl)-methyl-amino]ethyl]-1,2,4-triazol-1-yl]-N-methyl-pyrimidine-4-carboxamide], for which the percent effect (mortality or growth inhibition) at 200 ppm in the assay on Plutella xylostella and in the assay with Diabrotica balteata was at least 80% in each case. In addition, the percent effect (mortality or growth inhibition) at 50 ppm with Pseudoplusia includens was at least 80%. Also, the percent control (mortality, anti-feedant effect or growth inhibition) at 200 ppm in the assay with Spodoptera littoralis and in the assay on Chilo suppressalis was at least 80% each time. This compound had a mortality at 12 ppm in the assay on Myzus persicae of at least 80%.
Regarding `C[C@H](Nc1ncnc2c(C(F)(F)F)cc(Cl)cc12)c1ncnn1-c1cc(C(=O)N(C)CC#N)ncn1` [Compound P62, 6-[5-[(1S)-1-[[6-chloro-8-(trifluoromethyl)quinazolin-4-yl]amino]ethyl]-1,2,4-triazol-1-yl]-N-(cyanomethyl)-N-methyl-pyrimidine-4-carboxamide], the percent effect (mortality or growth inhibition) at 200 ppm in the assay with Plutella xylostella and in the assay with Diabrotica balteata was at least 80% throughout. Moreover, the percent effect (mortality or growth inhibition) at 50 ppm with Pseudoplusia includens is at least 80%. For the same compound, the percent control (mortality, anti-feedant effect or growth inhibition) at 200 ppm in the assay with Spodoptera littoralis and in the assay on Chilo suppressalis was at least 80% throughout. The mortality at 12 ppm in the assay with Myzus persicae was at least 80%.
As to `CNC(=O)c1cc(-n2ncnc2[C@H](C)Nc2ncnc3c(Cl)cc(C(F)(F)F)cc23)ncn1` [Compound P16, 6-[5-[(1S)-1-[[8-chloro-6-(trifluoromethyl)quinazolin-4-yl]amino]ethyl]-1,2,4-triazol-1-yl]-N-methyl-pyrimidine-4-carboxamide], the percent effect (mortality or growth inhibition) at 200 ppm in the assay on Plutella xylostella and with Diabrotica balteata was at least 80% throughout. The percent effect (mortality or growth inhibition) at 50 ppm in the assay on Pseudoplusia includens was at least 80%. In addition, the percent control (mortality, anti-feedant effect or growth inhibition) at 200 ppm in the assay on Spodoptera littoralis and in the assay with Chilo suppressalis was at least 80% in each case. The compound also came in with a mortality at 12 ppm with Myzus persicae of at least 80%.
As to `C[C@H](Nc1ncnc2c(C(F)(F)F)cc(Cl)cc12)c1ncnn1-c1cc(C#N)ncn1` [Compound P19, 6-[5-[(1S)-1-[[6-chloro-8-(trifluoromethyl)quinazolin-4-yl]amino]ethyl]-1,2,4-triazol-1-yl]pyrimidine-4-carbonitrile], the percent effect (mortality or growth inhibition) at 200 ppm with Plutella xylostella and with Diabrotica balteata was at least 80% throughout. For the same compound, the percent control (mortality, anti-feedant effect or growth inhibition) at 200 ppm in the assay with Spodoptera littoralis and in the assay on Chilo suppressalis was at least 80% in each case. Moreover, the mortality at 12.5 ppm with Chilo suppressalis (12.5 ppm) worked out at 80%. The compound further returned a mortality at 12 ppm in the assay on Myzus persicae of at least 80%.
For `C[C@H](Nc1ncnc2c(C(F)(F)F)cc(Cl)cc12)c1ncnn1-c1cc(C(=O)NCCC#N)ncn1` [Compound P39], the percent effect (mortality or growth inhibition) at 200 ppm with Plutella xylostella and in the assay on Diabrotica balteata was at least 80% throughout. Besides, the percent control (mortality, anti-feedant effect or growth inhibition) at 200 ppm with Spodoptera littoralis and in the assay with Chilo suppressalis was at least 80% throughout. This compound returned a mortality at 12 ppm with Myzus persicae of at least 80%.
Consider `C[C@H](Nc1ncnc2c(C(F)(F)F)cc(Cl)cc12)c1ncnn1-c1cc(C(=O)NC2CSC2)ncn1` [Compound P25, 6-[5-[(1S)-1-[[6-chloro-8-(trifluoromethyl)quinazolin-4-yl]amino]ethyl]-1,2,4-triazol-1-yl]-N-(thietan-3-yl)pyrimidine-4-carboxamide], for which the percent effect (mortality or growth inhibition) at 200 ppm with Plutella xylostella and in the assay with Diabrotica balteata was at least 80% throughout. Also, the percent control (mortality, anti-feedant effect or growth inhibition) at 200 ppm in the assay on Spodoptera littoralis and in the assay on Chilo suppressalis was at least 80% throughout. In the assay on Myzus persicae, the mortality at 12 ppm is at least 80%.
With `CNC(=O)c1cc(-n2ncnc2[C@H](C)Nc2ncnc3c(Cl)cc(I)cc23)ncn1` [Compound P4, 6-[5-[(1S)-1-[(8-chloro-6-iodo-quinazolin-4-yl)amino]ethyl]-1,2,4-triazol-1-yl]-N-methyl-pyrimidine-4-carboxamide], the percent effect (mortality or growth inhibition) at 200 ppm in the assay on Plutella xylostella and in the assay with Diabrotica balteata was at least 80% throughout. For the same compound, the percent control (mortality, anti-feedant effect or growth inhibition) at 200 ppm in the assay with Spodoptera littoralis and in the assay with Chilo suppressalis was at least 80% each time. The mortality at 12 ppm with Myzus persicae is at least 80%.
With `C[C@H](Nc1ncnc2c(C(F)(F)F)cc(Cl)cc12)c1ncnn1-c1cc(C(=O)NC2CC2)ncn1` [Compound P23, 6-[5-[(1S)-1-[[6-chloro-8-(trifluoromethyl)quinazolin-4-yl]amino]ethyl]-1,2,4-triazol-1-yl]-N-cyclopropyl-pyrimidine-4-carboxamide], the percent effect (mortality or growth inhibition) at 200 ppm with Plutella xylostella and in the assay on Diabrotica balteata was at least 80% in each case. In addition, the percent control (mortality, anti-feedant effect or growth inhibition) at 200 ppm in the assay with Spodoptera littoralis and with Chilo suppressalis was at least 80% each time. This compound also returned a mortality at 12 ppm with Myzus persicae of at least 80%.
With `C[C@H](Nc1ncnc2c(C(F)(F)F)cc(Cl)cc12)c1ncnn1-c1cc(C(=O)NC(C)(C)C#N)ncn1` [Compound P43, 6-[5-[(1S)-1-[[6-chloro-8-(trifluoromethyl)quinazolin-4-yl]amino]ethyl]-1,2,4-triazol-1-yl]-N-(1-cyano-1-methyl-ethyl)pyrimidine-4-carboxamide], the percent effect (mortality or growth inhibition) at 200 ppm with Plutella xylostella and in the assay with Diabrotica balteata was at least 80% throughout. Further, the percent control (mortality, anti-feedant effect or growth inhibition) at 200 ppm in the assay with Spodoptera littoralis and in the assay on Chilo suppressalis was at least 80% each time. Moreover, the mortality at 12 ppm in the assay on Myzus persicae was at least 80%.
On to `C[C@H](Nc1ncnc2c(I)cc(Cl)cc12)c1ncnn1-c1cc(C(=O)N(C)C)ncn1` [Compound P65, 6-[5-[(1S)-1-[(6-chloro-8-iodo-quinazolin-4-yl)amino]ethyl]-1,2,4-triazol-1-yl]-N,N-dimethyl-pyrimidine-4-carboxamide], for which the percent effect (mortality or growth inhibition) at 200 ppm with Plutella xylostella and in the assay on Diabrotica balteata was at least 80% in each case. Moreover, the percent control (mortality, anti-feedant effect or growth inhibition) at 200 ppm with Spodoptera littoralis and in the assay with Chilo suppressalis was at least 80% throughout. For the same compound, in the assay with Myzus persicae, the mortality at 12 ppm is at least 80%.
In the case of `C[C@@H](c1ncnn1-c1cc(C(=O)N(C)CC2CC2)ncn1)N(C)c1ncnc2c(C(F)(F)F)cc(Cl)cc12` [Compound P83, 6-[5-[(1S)-1-[[6-chloro-8-(trifluoromethyl)quinazolin-4-yl]-methyl-amino]ethyl]-1,2,4-triazol-1-yl]-N-(cyclopropylmethyl)-N-methyl-pyrimidine-4-carboxamide], the percent effect (mortality or growth inhibition) at 200 ppm in the assay with Plutella xylostella and in the assay with Diabrotica balteata was at least 80% in each case. Moreover, the percent control (mortality, anti-feedant effect or growth inhibition) at 200 ppm in the assay with Spodoptera littoralis and with Chilo suppressalis was at least 80% in each case. In the assay on Myzus persicae, this compound showed a mortality at 12 ppm of at least 80%.
As to `C[C@H](Nc1ncnc2c(Br)cc(Br)cc12)c1ncnn1-c1ncc(C(N)=O)s1` [Compound P36, 2-[5-[(1S)-1-[(6,8-dibromoquinazolin-4-yl)amino]ethyl]-1,2,4-triazol-1-yl]thiazole-5-carboxamide], the percent effect (mortality or growth inhibition) at 200 ppm in the assay with Plutella xylostella and in the assay with Diabrotica balteata was at least 80% throughout. The percent control (mortality, anti-feedant effect or growth inhibition) at 200 ppm in the assay on Spodoptera littoralis and with Chilo suppressalis was at least 80% throughout. In the assay on Myzus persicae, this compound registered a mortality at 12 ppm of at least 80%.
